The source of these data is patent US7018654B2, “Pharmaceutical composition containing an active agent in an amino acid copolymer structure” (New River Pharmaceuticals Inc., priority 1999, dated 2006).

Series [1] can be described thus: In vitro stability of glutamine by incubation in 0.2 M phosphate buffer at pH 9.0. Conditions: pH 9.0, 37° C., same conditions. It counts as physicochemical. The method, then:
The product of Example 2 was tested for stability and compared to monomeric glutamine by incubation in 0.2 M phosphate buffer at pH 9.0 as described by Price and Greenstein (J. Biol. Chem. vol. 180. p. 209, 1949), incorporated herein by reference.

The nature of series [2]: Stability of Gln measured by production of free ammonia in 0.2 M phosphate buffer. The series is classed as physicochemical.
For series [3], the system named is cultured human amniocytes. Conditions: 0.8% solution in alpha-MEM without glutamine, with insulin and transferrin, pH 7.2.

As to `NC(=O)CC[C@H](N)C(=O)O` [monomeric glutamine, glutamine], in series [1], the “Stability of glutamine (result in words)” value was “extensive degradation to ammonia and pyrrolidonecarboxylic acid”. For the same compound, in series [2], the “Stability of Gln, production of free ammonia (result in words)” value is “almost completely de-amidated”. With “Glutamic Acid/Glutamine Co-Polymer [Example 19]”, the “Growth of cultured cells with no addition of monomeric L-glutamine” value in series [3] is on record as “support growth of cultured human amniocytes, through multiple passages”.
